Literature values as cited in PMC5520971 (Organic & biomolecular chemistry, 2017).

Experiments:
[1] = test system: hepatocellular carcinoma cells; settings: ref [18]
[2] = test system: hepatocellular carcinoma cells; settings: ref [18]; remark: listed apart in the source

Structure (SMILES): CC1=C(/C=C/C(C)=C/C=C/C(C)=C/C(=O)O)C(C)(C)CCC1 [all-trans retinoic acid]
- growth of hepatocellular carcinoma cells in a mouse xenograft model [1]: selectively inhibited the growth
- growth of hepatocellular carcinoma cells in vitro [2]: selectively inhibited the growth
